# Test results: patent US20230398153A1, “A METHOD FOR EFFICIENT MICROGLIA REPLACEMENT” (The Board of Trustees of the Leland Stanford Junior …, priority 2020, published 2023)
# System: endogenous microglia
# Assay: Depletion of endogenous microglia by PLX5622 diet
# Type: in vivo, mouse
# Details: PLX5622 diet for 21 days
# Text: FIG. 8. Circulation-derived myeloid cells adopt a ramified microglia-like morphology upon brain engraftment. (A and B) Flow cytometry gating for analysis of donor chimerism in PB leukocytes (CD45+) (A) and brain myeloid cells (CD45+CD11b+)(B). (C) Representative images of circulation-derived myeloid cells (CDMCs)([…]) and host microglia (Iba-1+GFP−) cells and DAPI in the cortex of recipient mice at the indicated time points. Scale bars:50 μm. (D) Representative images of Iba-1+ cells in the cortex of mice treated with control or PLX5622 diet for 21 days. The right panels in each group are enlarged images of the boxed areas in the left panels. Scale bars: […]. (E) Iba-1+ cell density in the indicated brain regions was analyzed by microscopy (Mean±SEM, n=3/group, 6 brain slices/animal were quantified. ***p<0.001, Student's t-test). […]
# Immunofluorescence microscopy. […] Images were obtained using a Zeiss LSM710 confocal microscope or Zeiss AxioImager motorized widefield fluorescence microscope.
# Image analysis. […] For morphological analyses, Iba1+ cells and GFP+ cells in the indicated brain regions were analyzed. The number of Iba1+ cells, and number of branch points were manually counted using ImageJ. […] The length of processes in Iba-1+ cells was analyzed semi-automatically using NeuronJ plugin. The ratio of cell body to total cell area was analyzed using FracLac plugin as described. […]
smiles,measurement,value
COc1ncc(F)cc1CNc1ccc(Cc2c[nH]c3ncc(C)cc23)c(F)n1 [PLX5622],elimination of endogenous microglia (Iba-1+ cell density),efficient elimination of endogenous microglia throughout the brain
